Assay results taken from paper PMC11111408, “Concurrent inhibition of oncogenic and wild-type RAS-GTP for cancer therapy” (Nature, 2024).

How the values were obtained:
[1] = system: A375 cells; assay: Cellular ERK phosphorylation (pERK); type: cell-based, human
[2] = system: KRAS^G12D PDAC cell lines; assay: Western blot time course of RAS signalling in KRAS^G12D PDAC cell lines; type: cell-based, human; conditions: KRAS^G12D PDAC cells in culture, 2 h to 48 h
Description: Total ERK and vinculin were used as loading controls. […] Source Data
Cells were lysed with MSD Tris Lysis Buffer (MSD, R60TX-2) or a buffer of 1% Triton X-100, 20 mM Tris-HCl, 150 mM NaCl, and 1 mM EDTA, both supplemented with protease and phosphatase inhibitors. Lysates were cleared by centrifugation and quantified by BCA assay (Pierce, 23225). […] Image Studio Lite (Version 5.2.5) and Image Lab (Version 6.1.0 build 7) software were used for data analysis.

CCn1c(-c2cc(N3CCN(C4CC4)CC3)cnc2[C@H](C)OC)c2c3cc(ccc31)-c1csc(n1)C[C@H](NC(=O)[C@H]1[C@@H]3COC[C@@H]31)C(=O)N1CCC[C@H](N1)C(=O)OCC(C)(C)C2 [RMC-7977]
inhibition of downstream signalling (pERK) ([1]; A375, BRAF^V600E, RAS-independent): No inhibition | EC50 ([1]; Homo sapiens, A-375, A375 (BRAF^V600E)): > 10 µM | pERK suppression over time [2]: sustained pERK suppression
